Assays:
Format in all cases: in vivo
[1] = test system: wheat (Triticum aestivum); assay: Test Example 2 upland soil treatment, crop phytotoxicity; conditions: Table 5, upland soil treatment, index 0-5
Summary of the method: (§1)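 Visual 0–5 grading of herbicidal effect or phytotoxicity, made 21 days after a single pre-emergence soil-surface application at 1 kg a.i./ha.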

soybean (Glycine max) [2] = assay: as above; conditions: Table 5, upland soil treatment, index 0-5
Summary of the method: as §1

Digitaria adscendens [3] = assay: Test Example 2 upland soil treatment; conditions: Table 5, upland soil treatment, index 0-5
Summary of the method: as §1

Chenopodium album [4] = assay: Test Example 2 upland soil treatment; conditions: Table 5, upland soil treatment, index 0-5
Summary of the method: as §1

Stellaria media [5] = assay: Test Example 2 upland soil treatment; conditions: Table 5, upland soil treatment, index 0-5
Summary of the method: as §1

Setaria viridis [6] = assay: Test Example 2 upland soil treatment; conditions: Table 5, upland soil treatment, index 0-5
Summary of the method: as §1

Rice (Oryza sativa) = assay: Test Example 3 paddy field treatment, crop phytotoxicity; conditions: Table 6, paddy field treatment, transplanted rice, active ingredient 1 kg per hectare, 21st day after dropping, index 0-5
Summary of the method: (§2)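 Weed seeds sown in puddled paddy soil under 4 cm water, with two-leaf Koshihikari rice transplanted; 10 days later a wettable powder was applied to the water surface at 1 kg active ingredient/ha. Scored 21 days after application on a 0–5 scale (0 = <10%, 5 = ≥90% herbicidal effect or phytotoxicity).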

[7] = test system: wheat (Triticum aestivum); assay: Test Example 1 upland field foliage treatment, crop phytotoxicity; conditions: Table 4, upland field foliage treatment, index 0-5
Summary of the method: (§3)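 Scores are visual 0–5 ratings of herbicidal effect or crop injury (0: under 10%; 5: 90% or more) taken 21 days after treatment. Plants grew from seed in upland soil for 14 days, then foliage received the compound as a water-diluted wettable powder at 1 kg/ha active ingredient.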

soybean (Glycine max) [8] = assay: as above; conditions: Table 4, upland field foliage treatment, index 0-5
Summary of the method: as §3

Monochoria vaginalis = assay: Test Example 3 paddy field treatment; conditions: Table 6, paddy field treatment, active ingredient 1 kg per hectare, 21st day after dropping, index 0-5
Summary of the method: as §2

Echinochloa crusgalli = assay: Test Example 3 paddy field treatment; conditions: Table 6, paddy field treatment, active ingredient 1 kg per hectare, 21st day after dropping, index 0-5
Summary of the method: as §2

Scirpus juncoides = assay: Test Example 3 paddy field treatment; conditions: Table 6, paddy field treatment, active ingredient 1 kg per hectare, 21st day after dropping, index 0-5
Summary of the method: as §2

Ammannia multiflora = assay: Test Example 3 paddy field treatment; conditions: Table 6, paddy field treatment, active ingredient 1 kg per hectare, 21st day after dropping, index 0-5
Summary of the method: as §2

Digitaria adscendens [9] = assay: Test Example 1 upland field foliage treatment; conditions: Table 4, upland field foliage treatment, index 0-5
Summary of the method: as §3

Chenopodium album [10] = assay: Test Example 1 upland field foliage treatment; conditions: Table 4, upland field foliage treatment, index 0-5
Summary of the method: as §3

Stellaria media [11] = assay: Test Example 1 upland field foliage treatment; conditions: Table 4, upland field foliage treatment, index 0-5
Summary of the method: as §3

Setaria viridis [12] = assay: Test Example 1 upland field foliage treatment; conditions: Table 4, upland field foliage treatment, index 0-5
Summary of the method: as §3

Compound | Herbicidal activity (phytotoxicity) TA: Wheat (Triticum aestivum) [1] | Herbicidal activity (phytotoxicity) GM: Soybean (Glycine max) (soybean (Glycine max) [2]) | Herbicidal activity DA: Digitaria adscendens (Digitaria adscendens [3]) | Herbicidal activity CA: Chenopodium album (Chenopodium album [4]) | Herbicidal activity SM: Stellaria media (Stellaria media [5]) | Herbicidal activity SV: Setaria viridis (Setaria viridis [6]) | Herbicidal activity (phytotoxicity) OS (Rice (Oryza sativa)) | Herbicidal activity (phytotoxicity) TA: Wheat (Triticum aestivum) [7] | Herbicidal activity (phytotoxicity) GM: Soybean (Glycine max) (soybean (Glycine max) [8]) | Herbicidal activity MV (Monochoria vaginalis) | Herbicidal activity EC (Echinochloa crusgalli) | Herbicidal activity SJ (Scirpus juncoides) | Herbicidal activity AM (Ammannia multiflora) | Herbicidal activity DA: Digitaria adscendens (Digitaria adscendens [9]) | Herbicidal activity CA: Chenopodium album (Chenopodium album [10]) | Herbicidal activity SM: Stellaria media (Stellaria media [11]) | Herbicidal activity SV: Setaria viridis (Setaria viridis [12])
CNC(=O)C(Cn1cc(C)c(-c2cc(C(F)(F)F)ccc2F)n1)=NOC [Compound 86] | 0 (herbicidal effect of not less than 0% and less than 10%, or phytotoxicity of 0% or more and less than 10%) | 1 (herbicidal effect of not less than 10% and less than 30%, or phytotoxicity of 10% or more and less than 30%) | 5 (herbicidal effect of not less than 90%, or phytotoxicity of 90% or more) | 5 (herbicidal effect of not less than 90%, or phytotoxicity of 90% or more) | 5 (herbicidal effect of not less than 90%, or phytotoxicity of 90% or more) | 4 (herbicidal effect of not less than 70% and less than 90%, or phytotoxicity of 70% or more and less than 90%) | 0 (herbicidal effect of not less than 0% and less than 10%, or phytotoxicity of 0% or more and less than 10%) | 0 (herbicidal effect of not less than 0% and less than 10%, or phytotoxicity of 0% or more and less than 10%) | 0 (herbicidal effect of not less than 0% and less than 10%, or phytotoxicity of 0% or more and less than 10%) | 5 (herbicidal effect of not less than 90%, or phytotoxicity of 90% or more) | 5 (herbicidal effect of not less than 90%, or phytotoxicity of 90% or more) | 4 (herbicidal effect of not less than 70% and less than 90%, or phytotoxicity of 70% or more and less than 90%) | 5 (herbicidal effect of not less than 90%, or phytotoxicity of 90% or more) | 5 (herbicidal effect of not less than 90%, or phytotoxicity of 90% or more) | 4 (herbicidal effect of not less than 70% and less than 90%, or phytotoxicity of 70% or more and less than 90%) | 4 (herbicidal effect of not less than 70% and less than 90%, or phytotoxicity of 70% or more and less than 90%) | 3 (herbicidal effect of not less than 50% and less than 70%, or phytotoxicity of 50% or more and less than 70%)
CNC(=O)C(Cn1cc(C)c(-c2cc(F)c(OC)c(F)c2)n1)=NOC [Compound 92] | 0 (herbicidal effect of not less than 0% and less than 10%, or phytotoxicity of 0% or more and less than 10%) | 0 (herbicidal effect of not less than 0% and less than 10%, or phytotoxicity of 0% or more and less than 10%) | 5 (herbicidal effect of not less than 90%, or phytotoxicity of 90% or more) | 5 (herbicidal effect of not less than 90%, or phytotoxicity of 90% or more) | 5 (herbicidal effect of not less than 90%, or phytotoxicity of 90% or more) | 5 (herbicidal effect of not less than 90%, or phytotoxicity of 90% or more) | 0 (herbicidal effect of not less than 0% and less than 10%, or phytotoxicity of 0% or more and less than 10%) | 0 (herbicidal effect of not less than 0% and less than 10%, or phytotoxicity of 0% or more and less than 10%) | 0 (herbicidal effect of not less than 0% and less than 10%, or phytotoxicity of 0% or more and less than 10%) | 5 (herbicidal effect of not less than 90%, or phytotoxicity of 90% or more) | 5 (herbicidal effect of not less than 90%, or phytotoxicity of 90% or more) | 5 (herbicidal effect of not less than 90%, or phytotoxicity of 90% or more) | 5 (herbicidal effect of not less than 90%, or phytotoxicity of 90% or more) | 5 (herbicidal effect of not less than 90%, or phytotoxicity of 90% or more) | 5 (herbicidal effect of not less than 90%, or phytotoxicity of 90% or more) | 5 (herbicidal effect of not less than 90%, or phytotoxicity of 90% or more) | 5 (herbicidal effect of not less than 90%, or phytotoxicity of 90% or more)
CCc1cn(CC(=NOC)C(=O)NC)nc1-c1ccccc1 [Compound 98] | 0 (herbicidal effect of not less than 0% and less than 10%, or phytotoxicity of 0% or more and less than 10%) | 0 (herbicidal effect of not less than 0% and less than 10%, or phytotoxicity of 0% or more and less than 10%) | 4 (herbicidal effect of not less than 70% and less than 90%, or phytotoxicity of 70% or more and less than 90%) | 4 (herbicidal effect of not less than 70% and less than 90%, or phytotoxicity of 70% or more and less than 90%) | 5 (herbicidal effect of not less than 90%, or phytotoxicity of 90% or more) | 3 (herbicidal effect of not less than 50% and less than 70%, or phytotoxicity of 50% or more and less than 70%) | 0 (herbicidal effect of not less than 0% and less than 10%, or phytotoxicity of 0% or more and less than 10%) | 0 (herbicidal effect of not less than 0% and less than 10%, or phytotoxicity of 0% or more and less than 10%) | 0 (herbicidal effect of not less than 0% and less than 10%, or phytotoxicity of 0% or more and less than 10%) | 5 (herbicidal effect of not less than 90%, or phytotoxicity of 90% or more) | 5 (herbicidal effect of not less than 90%, or phytotoxicity of 90% or more) | 4 (herbicidal effect of not less than 70% and less than 90%, or phytotoxicity of 70% or more and less than 90%) | 4 (herbicidal effect of not less than 70% and less than 90%, or phytotoxicity of 70% or more and less than 90%) | 4 (herbicidal effect of not less than 70% and less than 90%, or phytotoxicity of 70% or more and less than 90%) | 4 (herbicidal effect of not less than 70% and less than 90%, or phytotoxicity of 70% or more and less than 90%) | 4 (herbicidal effect of not less than 70% and less than 90%, or phytotoxicity of 70% or more and less than 90%) | 3 (herbicidal effect of not less than 50% and less than 70%, or phytotoxicity of 50% or more and less than 70%)
CNC(=O)C(Cn1cc(C)c(-c2ccccc2)n1)=NOCF [Compound 103] | 0 (herbicidal effect of not less than 0% and less than 10%, or phytotoxicity of 0% or more and less than 10%) | 0 (herbicidal effect of not less than 0% and less than 10%, or phytotoxicity of 0% or more and less than 10%) | 5 (herbicidal effect of not less than 90%, or phytotoxicity of 90% or more) | 5 (herbicidal effect of not less than 90%, or phytotoxicity of 90% or more) | 5 (herbicidal effect of not less than 90%, or phytotoxicity of 90% or more) | 4 (herbicidal effect of not less than 70% and less than 90%, or phytotoxicity of 70% or more and less than 90%) | 0 (herbicidal effect of not less than 0% and less than 10%, or phytotoxicity of 0% or more and less than 10%) | 0 (herbicidal effect of not less than 0% and less than 10%, or phytotoxicity of 0% or more and less than 10%) | 0 (herbicidal effect of not less than 0% and less than 10%, or phytotoxicity of 0% or more and less than 10%) | 5 (herbicidal effect of not less than 90%, or phytotoxicity of 90% or more) | 5 (herbicidal effect of not less than 90%, or phytotoxicity of 90% or more) | 5 (herbicidal effect of not less than 90%, or phytotoxicity of 90% or more) | 5 (herbicidal effect of not less than 90%, or phytotoxicity of 90% or more) | 4 (herbicidal effect of not less than 70% and less than 90%, or phytotoxicity of 70% or more and less than 90%) | 5 (herbicidal effect of not less than 90%, or phytotoxicity of 90% or more) | 5 (herbicidal effect of not less than 90%, or phytotoxicity of 90% or more) | 3 (herbicidal effect of not less than 50% and less than 70%, or phytotoxicity of 50% or more and less than 70%)

Reference: patent US7192906B2, “Substituted pyrazole derivatives, production process thereof, and herbicide compositions containing the derivatives” (SDS Biotech K.K., priority 2001, dated 2007)
